Experiments:
[1] = tested on: Human whole blood; assay: IRAK4 Whole Blood Assay; assay type: cell-based; details: stimulated with TLR2 agonist lipoteichoic acid 10 μg/mL for 5 hours, IL-6 levels
Description: Human whole blood containing the anti-coagulant ACD-A was plated in 384-well plate (25 μL/well) and incubated with compounds for 60 minutes at 37° C. in a 5% CO2 incubator. The blood was stimulated with a TLR2 agonist, 10 μg/mL final concentration of lipoteichoic acid (Invivogen, San Diego, CA) in 25 μL RPMI (Gibco) for 5 hours in a 5% CO2 incubator. At the end of the incubation, plates were centrifuged at 2300 rpm for 5 minutes. Supernatants were harvested and analyzed for IL-6 levels by Flow Cytometry beads assay (BD Biosciences, San Jose, CA).

[2] = biological target: T1, IRAK4 (Homo sapiens, UniProt Q9NWZ3); assay: IRAK4 Inhibition Assay; assay type: biochemical; details: ATP 500 μM; fluoresceinated peptide 1.5 μM; IRAK4 0.6 nM; 60 min room temperature; Caliper LABCHIP
T1 sequence (Q9NWZ3 1-460): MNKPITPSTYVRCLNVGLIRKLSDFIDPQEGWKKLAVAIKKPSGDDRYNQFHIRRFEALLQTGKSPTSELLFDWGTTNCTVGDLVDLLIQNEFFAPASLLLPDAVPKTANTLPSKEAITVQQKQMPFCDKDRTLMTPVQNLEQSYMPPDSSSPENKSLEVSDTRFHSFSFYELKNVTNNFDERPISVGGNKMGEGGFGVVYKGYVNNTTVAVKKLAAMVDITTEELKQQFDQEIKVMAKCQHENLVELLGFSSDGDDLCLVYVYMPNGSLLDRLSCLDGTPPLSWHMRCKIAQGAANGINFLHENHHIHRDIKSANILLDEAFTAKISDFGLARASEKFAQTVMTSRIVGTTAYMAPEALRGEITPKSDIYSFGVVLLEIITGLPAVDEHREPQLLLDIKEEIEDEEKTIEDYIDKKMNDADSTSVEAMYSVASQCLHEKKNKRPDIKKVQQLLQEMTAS
Description: The assays were performed in U-bottom 384-well plates. The final assay volume was 30 μL prepared from 15 μL additions of enzyme and substrates (fluoresceinated peptide and ATP) and test compounds in assay buffer (20 mM HEPES pH 7.2, 10 mM MgCl2, 0.015% Brij 35 and 4 mM DTT). The reaction was initiated by the combination of IRAK4 with substrates and test compounds. The reaction mixture was incubated at room temperature for 60 min. and terminated by adding 45 μL of 35 mM EDTA to each sample. The reaction mixture was analyzed on the Caliper LABCHIP® 3000 (Caliper, Hopkinton, MA) by electrophoretic separation of the fluorescent substrate and phosphorylated product. Inhibition data were calculated by comparison to no enzyme control reactions for 100% inhibition and vehicle-only reactions for 0% inhibition. The final concentrations of reagents in the assays are ATP, 500 μM; FL-IPTSPITTTYFFFKKK peptide 1.5 μM; IRAK4, 0.6 nM; and DMSO, 1.6%.

SMILES | EC50 [1] | IC50 [2]
CC(O)CCNC(=O)c1cnc2c([nH]c3cc(C#N)ccc32)c1NC(C)C (stereo not drawn) [Example 25, 7-cyano-N-(3-hydroxybutyl)-4-(isopropylamino)-5H-pyrido[3,2-b]indole-3-carboxamide] | 1500 nM | 3.5 nM
CC(C)(O)CCNC(=O)c1cnc2c([nH]c3cc(C#N)ccc32)c1NC(C)(C)C [Example 40, 4-(tert-butylamino)-7-cyano-N-(3-hydroxy-3-methylbutyl)-5H-pyrido[3,2-b]indole-3-carboxamide] | 1600 nM | 6.3 nM
CC(C)Nc1c(C(=O)NCc2ncn[nH]2)cnc2c1[nH]c1cc(C#N)ccc12 [Example 20, N-((1H-1,2,4-triazol-5-yl)methyl)-7-cyano-4-(isopropylamino)-5H-pyrido[3,2-b] indole carboxamide] | 1050 nM | 14 nM
CC(C)Nc1c(C(=O)NCCN2CCS(=O)(=O)CC2)cnc2c1[nH]c1cc(C#N)ccc12 [Example 62, 7-cyano-N-(2-(1,1-dioxidothiomorpholino)ethyl)-4-(isopropylamino)-5H-pyrido[3,2-b]indole-3-carboxamide] | 12300 nM | 3.3 nM
CC(C)Nc1c(-c2cc(C3CCNCC3)no2)cnc2c1[nH]c1cc(C#N)ccc12 [Example 76, 4-(isopropylamino)-3-(3-(piperidin-4-yl)isoxazol-5-yl)-5H-pyrido[3,2-b]indole-7-carbonitrile] | 820 nM | 2.3 nM
CC(C)(O)[C@H](F)CNC(=O)c1cnc2c([nH]c3cc(C#N)ccc32)c1Nc1cnn(CC(F)F)c1 [Example 23, (R)-7-cyano-4-((1-(2,2-difluoroethyl)-1H-pyrazol-4-yl)amino)-N-(2-fluoro-3-hydroxy-3-methylbutyl)-5H-pyrido[3,2-b]indole-3-carboxamide] | > 10000 nM | 15 nM
CC(C)Nc1c(C(=O)NCCC(C)(C)NC(=O)C2CC2)cnc2c1[nH]c1cc(C#N)ccc12 [Example 59, 7-cyano-N-(3-(cyclopropanecarboxamido)-3-methylbutyl)-4-(isopropylamino)-5H-pyrido[3,2-b]indole-3-carboxamide] | > 10000 nM | 5.4 nM
CC(C)Nc1c(-c2cc(C3CCOCC3)no2)cnc2c1[nH]c1cc(C#N)ccc12 [Example 77, 4-(isopropylamino)-3-(3-(tetrahydro-2H-pyran-4-yl)isoxazol-5-yl)-5H-pyrido[3,2-b]indole-7-carbonitrile] | 990 nM | 11 nM
CC(C)Nc1c(C(=O)NCc2cocn2)cnc2c1[nH]c1cc(C#N)ccc12 [Example 14, 7-cyano-4-(isopropylamino)-N-(oxazol-4-ylmethyl)-5H-pyrido[3,2-b]indole-3-carboxamide] | 3500 nM | 19 nM
CC(C)Nc1c(C(=O)NCC2CCS(=O)(=O)C2)cnc2c1[nH]c1cc(C#N)ccc12 (stereo not drawn) [Example 61, 7-cyano-N-((1,1-dioxidotetrahydrothiophen-3-yl)methyl)-4-(isopropylamino)-5H-pyrido[3,2-b]indole-3-carboxamide] | > 20000 nM | 7.2 nM
CC(C)Nc1c(C(=O)NCCC2(O)CC(F)(F)C2)cnc2c1[nH]c1cc(C#N)ccc12 [Example 43, 7-cyano-N-(2-(3,3-difluoro-1-hydroxycyclobutyl)ethyl)-4-(isopropylamino)-5H-pyrido[3,2-b]indole-3-carboxamide] | 740 nM | 2.5 nM
CC(C)Nc1c(C(=O)NCCC(C)(C)F)cnc2c1[nH]c1cc(C#N)ccc12 [Example 38, 7-cyano-N-(3-fluoro-3-methylbutyl)-4-(isopropylamino)-5H-pyrido[3,2-b]indole-3-carboxamide] | 510 nM | 3.1 nM
CC(=O)NC(C)(C)CCNC(=O)c1cnc2c([nH]c3cc(C#N)ccc32)c1NC(C)C [Example 60, N-(3-acetamido-3-methylbutyl)-7-cyano-4-(isopropylamino)-5H-pyrido[3,2-b]indole-3-carboxamide] | > 20000 nM | 3.8 nM
CC(C)Nc1c(C(=O)NC[C@@H](F)C(C)(C)O)cnc2c1[nH]c1cc(-c3cncs3)ccc12 [Example 66, (R)—N-(2-fluoro-3-hydroxy-3-methylbutyl)-4-(isopropylamino)-7-(thiazol-5-yl)-5H-pyrido[3,2-b]indole-3-carboxamide] | 1240 nM | 8.6 nM
CC(C)Nc1c(C(=O)N[C@H]2CC[C@H](O)CC2)cnc2c1[nH]c1cc(C#N)ccc12 [Example 10, 7-cyano-N-((1R,4R)-4-hydroxycyclohexyl)-4-(isopropylamino)-5H-pyrido[3,2-b]indole-3-carboxamide] | 2890 nM | 12 nM
CC(C)Nc1c(C(=O)NCC(F)(F)CN)cnc2c1[nH]c1cc(C#N)ccc12 [Example 51, N-(3-amino-2,2-difluoropropyl)-7-cyano-4-(isopropylamino)-5H-pyrido[3,2-b]indole-3-carboxamide] | 1550 nM | 16 nM
CC(=O)N[C@H]1CC[C@H](NC(=O)c2cnc3c([nH]c4cc(C#N)ccc43)c2NC(C)C)CC1 [Example 13, N-((1R,4R)-4-acetamidocyclohexyl)-7-cyano-4-(isopropylamino)-5H-pyrido[3,2-b]indole-3-carboxamide] | 2210 nM | 3.7 nM
CC(C)(O)CCNC(=O)c1cnc2c([nH]c3cc(C#N)ccc32)c1N[C@H]1CCOC1 [Example 28, (S)-7-cyano-N-(3-hydroxy-3-methylbutyl)-4-((tetrahydrofuran-3-yl)amino)-5H-pyrido[3,2-b]indole-3-carboxamide] |  | 48 nM
CC(C)Nc1c(C(=O)NC[C@@H](F)C(C)(C)O)cnc2c1[nH]c1cc(C#N)cnc12 [Example 69, (R)-7-cyano-N-(2-fluoro-3-hydroxy-3-methylbutyl)-4-(isopropylamino)-5H-pyrrolo [3,2-b:4,5-b′]dipyridine-3-carboxamide] |  | 540 nM
N#Cc1ccc2c(c1)[nH]c1c(NC3COC3)c(C(=O)NCCC(F)(F)F)cnc12 [Example 42, 7-cyano-4-(oxetanylamino)-N-(3,3,3-trifluoropropyl)-5H-pyrido[3,2-b]indole-3-carboxamide] |  | 24 nM
CC(C)Nc1c(C(=O)NC(CCO)C2CC2)cnc2c1[nH]c1cc(C#N)ccc12 (stereo not drawn) [Example 16, 7-cyano-N-(1-cyclopropyl-3-hydroxypropyl)-4-(isopropylamino)-5H-pyrido[3,2-b]indole-3-carboxamide] |  | 310 nM
CC(C)(O)CCNC(=O)c1cnc2c([nH]c3cc(C#N)ccc32)c1NCC(F)(F)F [Example 37, 7-cyano-N-(3-hydroxy-3-methylbutyl)-4-((2,2,2-trifluoroethyl)amino)-5H-pyrido[3,2-b]indole-3-carboxamide] |  | 14 nM
C[C@H](Nc1c(C(=O)NCCC(C)(C)O)cnc2c1[nH]c1cc(C#N)ccc12)C1CC1 [Example 29, (S)-7-cyano-4-((1-cyclopropylethyl)amino)-N-(3-hydroxy-3-methylbutyl)-5H-pyrido[3,2-b]indole-3-carboxamide] |  | 11 nM
CC(=O)N[C@H]1C[C@H](NC(=O)c2cnc3c([nH]c4cc(C#N)ccc43)c2NC(C)C)C1 [Example 49, N-((1R,3R)-3-acetamidocyclobutyl)-7-cyano-4-(isopropylamino)-5H-pyrido[3,2-b]indole-3-carboxamide] |  | 22 nM
CC(C)(O)CCNC(=O)c1cnc2c([nH]c3cc(C#N)ccc32)c1NC1COC1 [Example 41, 7-cyano-N-(3-hydroxy-3-methylbutyl) (oxetan-3-ylamino)-5H-pyrido[3,2-b]indole-3-carboxamide] |  | 9.2 nM
CCCc1noc(-c2cnc3c([nH]c4cc(C#N)ccc43)c2NC(C)C)n1 [Example 72, 4-(isopropylamino)-3-(3-propyl-1,2,4-oxadiazol-5-yl)-5H-pyrido[3,2-b]indole-7-carbonitrile] |  | 360 nM
N#Cc1ccc2c(c1)[nH]c1c(NC3CC3)c(C(=O)N[C@H]3C[C@H](O)C3)cnc12 [Example 45, 7-cyano (cyclopropylamino)-N-((1R,3R)-3-hydroxycyclobutyl)-5H-pyrido[3,2-b]indole carboxamide] |  | 33 nM
CC(C)Nc1c(C(=O)NCCc2nnn[nH]2)cnc2c1[nH]c1cc(C#N)ccc12 [Example 65, N-(2-(1H-tetrazol-5-yl)ethyl)-7-cyano-4-(isopropylamino)-5H-pyrido[3,2-b]indole-3-carboxamide] |  | 100 nM

Source: US12421230B2, “Tricyclic heteroaryl compounds useful as IRAK4 inhibitors” (BRISTOL-MYERS SQUIBB COMPANY, priority 2020, dated 2025)
